Results reported in patent US20110263577A1 (priority 2008, published 2011).
Counter-ions that a name gives are not always drawn.

target: α7-subtype of nicotinic receptors (Rattus norvegicus, UniProt Q05941); assay: biochemical; assay type: binding
Sequence (Q05941 23-502): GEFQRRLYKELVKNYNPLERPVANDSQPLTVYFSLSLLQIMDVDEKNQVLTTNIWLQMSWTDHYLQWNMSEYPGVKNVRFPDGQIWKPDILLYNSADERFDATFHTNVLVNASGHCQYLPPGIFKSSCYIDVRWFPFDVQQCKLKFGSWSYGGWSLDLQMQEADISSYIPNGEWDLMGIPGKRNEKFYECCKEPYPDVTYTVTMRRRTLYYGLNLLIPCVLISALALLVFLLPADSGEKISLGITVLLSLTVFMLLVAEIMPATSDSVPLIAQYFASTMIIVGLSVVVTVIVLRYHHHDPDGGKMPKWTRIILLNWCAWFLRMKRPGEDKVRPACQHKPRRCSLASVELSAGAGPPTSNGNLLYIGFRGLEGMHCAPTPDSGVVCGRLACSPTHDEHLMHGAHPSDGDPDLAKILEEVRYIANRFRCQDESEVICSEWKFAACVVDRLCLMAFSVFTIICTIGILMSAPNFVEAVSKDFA

Structure (SMILES) | IC50
c1ccc2c(c1)CC(c1nnc(N3CCN4CCC3CC4)o1)C2 [Compound 1, 4-(5-Indan-2-yl-[1,3,4]oxadiazol-2-yl)-1,4-diaza-bicyclo[3.2.2]nonane fumaric acid salt] | 0.61 µM
c1ccc2c(c1)OC(c1nnc(N3CCN4CCC3CC4)o1)O2 [Compound 2, 4-(5-Benzo[1,3]-dioxol-2-yl-[1,3,4]oxadiazol-2-yl)-1,4-diaza-bicyclo[3.2.2]nonane fumaric acid salt] | 0.75 µM
c1ccc2c(c1)OCC(c1nnc(N3CCN4CCC3CC4)o1)O2 (stereo not drawn) [Compound 3, 4-[5-(2,3-Dihydro-benzo[1,4]dioxin-2-yl)-[1,3,4]oxadiazol-2-yl]-1,4-diaza-bicyclo[3.2.2]nonane fumaric acid salt] | 1.8 µM
